Test results taken from patent EP0176033A2, “Isoxazolecarboxylic-acid derivatives, their preparation and use” (BASF Aktiengesellschaft, priority 1984, dated 1986).

Test system: Rhino-Maus
Experiment: Rhino mouse model: reduction of utriculus diameter after topical application (comedolytic activity)
Assay type: in vivo
Settings: 100 µl on the back, once daily, 5 days per week, 2 weeks, versus untreated control group
Source text: Die antiarthritische Wirkung der erfindungsgemäßen Verbindungen kann in üblicher Weise im Tierexperiment im Adjuvans-Arthritis-Modell bestimmt werden. Die dermatologische Aktivität, beispielsweise für die Behandlung von Akne, kann u. a. durch die komedolytische Aktivität und die Fähigkeit nachgewiesen werden, die Anzahl der Zysten im Modell der Rhino--Maus zu reduzieren.
Diese Methode ist von L. H. Kligman et al in The Journal of Investigative Dermatology 73, 354 - 358 (1979) und von J.A. Mezick et al. in "Models of Dermatalogy" (Ed. Maibach, Läwe), Vol. 2, S. 59-63, Karger, Basel 1985) beschrieben.
Die Testsubstanz wurde in einem geeigneten Vehikel auf der gesamten Rückenpartie der Rhino-Maus topisch aufgetragen (100 µl), einmal täglich, an fünf aufeinanderfolgenden Tagen pro Woche, zwei Wochen lang ungefähr 72 h nach der letzten Behandlung wurde die dorsale Haut entfernt und in 0,5 Xiger Essigsäure 18 h bei 4-6°C belassen. Danach wurde eine ca. 2 x 5 cm^2 große Fläche herausgeschnitten, die Epidermis abgeschält, auf einen Objektträger aufgebracht (mit der dermalen Seite nach oben) und mittels Alkohol/Xylol wasserfrei gespült, bis die Epidermis durchsichtig erscheint. Die Probe wurde durch Uberziehen mit Permount fixiert und mikroskopisch ausgewertet. […]

C/C(=C\c1cc(C(=O)O)no1)c1ccc2c(c1)C(C)(C)CCC2(C)C [Beispiel 17a, (E)-5-[2-(5,5,8,8-Tetramethyl-5,6,7,8-tetrahydro-naphth--2-yl)-1-propenyl]isoxazol-3-carbonsäure]
Reduktion des Utriculusdurchmessers in % (Dosis 0,2 mg/ml): 45,1%
Reduktion des Utriculusdurchmessers in % (Dosis 2 mg/ml): 75,6%
